pIC50: −log10 of the molar value.
Experiments:
KPL-4 cells = assay: Tumor cell proliferation assay (CellTiter-Glo); format: cell-based; conditions: KPL4; 72 h drug exposure
[1] = target: His-tagged human recombinant kinase full-length Akt1 (Homo sapiens (Human), UniProt P31749); assay: Akt1 kinase assay (TR-FRET); format: biochemical; conditions: 10 μM ATP; median
How it was run: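 Full-length His-tagged human Akt1 from insect cells, pre-incubated 15 min with compound, then 60 min at 22° C with 10 μM ATP and 1 μM biotinylated peptide in pH 7.5 TRIS buffer. Phosphopeptide detected by HTRF (665/620 nm ratio); data normalised to no-inhibitor and no-enzyme controls.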

[2] = test system: phospho-AKT at S473 in KPL4 breast tumour cell line; assay: Cellular p-AKT1/2/3-S473 assay; format: cell-based; conditions: KPL4 cells, 2 hours treatment; median; read-out: pAKT-S743 median IC50
[3] = target: His-tagged human recombinant kinase full-length Akt2 (Homo sapiens (Human), UniProt P31751); assay: Akt2 kinase assay (TR-FRET); format: biochemical; conditions: 10 μM ATP; median
Chain of His-tagged human recombinant kinase full-length Akt2 (P31751 whole entry): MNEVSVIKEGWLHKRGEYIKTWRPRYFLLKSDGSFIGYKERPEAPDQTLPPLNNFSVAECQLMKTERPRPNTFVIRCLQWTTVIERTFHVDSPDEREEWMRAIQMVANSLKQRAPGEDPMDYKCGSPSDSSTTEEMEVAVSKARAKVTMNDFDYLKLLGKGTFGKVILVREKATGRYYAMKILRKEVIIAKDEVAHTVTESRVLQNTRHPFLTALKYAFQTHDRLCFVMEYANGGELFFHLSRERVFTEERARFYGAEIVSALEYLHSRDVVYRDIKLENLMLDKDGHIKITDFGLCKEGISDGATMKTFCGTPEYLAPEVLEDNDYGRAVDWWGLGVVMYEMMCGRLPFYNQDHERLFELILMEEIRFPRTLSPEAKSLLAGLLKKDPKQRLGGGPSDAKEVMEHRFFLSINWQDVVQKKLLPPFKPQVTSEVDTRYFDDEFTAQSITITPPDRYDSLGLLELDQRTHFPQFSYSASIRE
How it was run: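 PDK1-activated full-length His-Akt2 (insect-cell expressed, ~0.2 ng/μl final) pre-incubated with compound 15 min, then reacted 60 min at 22 °C with 10 μM ATP and 1 μM biotinylated peptide in Tris pH 7.5/MgCl2/DTT. EDTA stop; phospho-peptide read by HTRF 665/620 ratio, normalised to no-inhibitor and no-enzyme controls.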

Chain of His-tagged human recombinant kinase full-length Akt1 (P31749 whole entry): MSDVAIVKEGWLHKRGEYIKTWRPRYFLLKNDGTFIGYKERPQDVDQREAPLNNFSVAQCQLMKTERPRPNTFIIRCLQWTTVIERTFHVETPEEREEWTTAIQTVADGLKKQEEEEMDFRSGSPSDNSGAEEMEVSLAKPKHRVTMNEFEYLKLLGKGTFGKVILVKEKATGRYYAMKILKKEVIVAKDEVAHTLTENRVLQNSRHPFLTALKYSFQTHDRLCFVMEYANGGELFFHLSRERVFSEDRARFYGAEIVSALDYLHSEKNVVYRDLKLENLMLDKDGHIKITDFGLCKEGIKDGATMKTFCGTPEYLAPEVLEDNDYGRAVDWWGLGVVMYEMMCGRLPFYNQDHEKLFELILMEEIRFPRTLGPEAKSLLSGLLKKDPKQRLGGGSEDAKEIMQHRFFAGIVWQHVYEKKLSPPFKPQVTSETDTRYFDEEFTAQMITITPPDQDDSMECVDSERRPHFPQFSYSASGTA

How did the pIC50 (KPL-4 cells) turn out when `C=Cc1cnc2cc(-c3ccccc3)c(-c3ccc(C4(N)CCC4)cc3)nn12` [Example 9-0, 1-[4-(7-Phenyl-3-vinyl-imidazo[1,2-b]pyridazin-6-yl)-phenyl]-cyclobutylamine] was run?
Its pIC50 is 5.73.

And the pIC50 [1]?
The pIC50 was 7.36.

What about the pIC50 [2] of the same compound?
The pIC50 was 7.52.

What about the pIC50 [3] of the same compound?
Its pIC50 is 6.49.

What does the source list for `NC1(c2ccc(-c3nn4c(-c5ccc(F)cc5)c(Br)nc4cc3-c3ccccc3)cc2)CCC1` [Example 6-0, 1-{4-[2-Bromo-3-(4-fluorophenyl)-7-phenyl-imidazo[1,2-b]pyridazin-6-yl]-phenyl}-cyclobutylamine]?
pIC50 (KPL-4 cells): 5.72; pIC50 [1]: 7.17; pIC50 [2]: 6.39; pIC50 [3]: 7.39

— patent US8987273B2, “Substituted imidazo[1,2-B]pyridazines” (Bayer Intellectual Property GmbH, priority 2010, dated 2015)
